Results from patent US9556165B2 (priority 2012, dated 2017).
≈ marks a conversion by molar mass, not a printed value. Like-named read-outs stand apart in the source and are kept apart here.

How the values were obtained:
Assay type in all cases: cell-based
S. pneumoniae 113 = test: MIC determination, broth microdilution (CLSI); conditions: Streptococcus pneumoniae, 113, strain 13; broth microdilution; read-out: MIC strain 13 (S. pneumoniae 113)
E. coli J62 = test: MIC determination, broth microdilution (CLSI); conditions: Escherichia coli, J62, strain 17; broth microdilution; read-out: MIC strain 17 (E. coli J62)
Bacteria = test: MIC determination in combination with β-lactamase inhibitors (constant 4 μg/mL)
K. pneumoniae 60 = test: MIC determination, broth microdilution (CLSI); conditions: Klebsiella pneumoniae, 60, strain 2
E. coli J62-TEM-3 = test: MIC determination, broth microdilution (CLSI); conditions: Escherichia coli, J62TEM3, read-out: MIC strain 18 (E. coli J62-TEM-3), strain 18; broth microdilution
E. coli ATCC25922 = test: MIC determination, broth microdilution (CLSI); conditions: Escherichia coli, ATCC25922, strain 1
[1] = tested on: P. aeruginosa 2297 (AmpC wt); test: MIC determination, broth microdilution (CLSI); conditions: Pseudomonas aeruginosa, strain 7
H. influenzae ATCC 49247 = test: MIC determination, broth microdilution (CLSI); conditions: Haemophilus influenzae, ATCC49247, strain 12; broth microdilution; read-out: MIC strain 12 (H. influenzae ATCC 49247)
S. aureus 133 = test: MIC determination, broth microdilution (CLSI)
P. aeruginosa PAO1 = test: MIC determination, broth microdilution (CLSI); conditions: Pseudomonas aeruginosa, PAO1, strain 6
B. fragilis 6688 = test: MIC determination, broth microdilution (CLSI); conditions: Bacteroides fragilis, 6688, strain 15; broth microdilution; read-out: MIC strain 15 (B. fragilis 6688)
M. morganii 126/3048 = test: MIC determination, broth microdilution (CLSI); conditions: Morganella morganii, 126/3048, strain 5
C. freundii K21/3034 = test: MIC determination, broth microdilution (CLSI); conditions: Citrobacter freundii, K21/3034, strain 4
A. baumannii ATCC15308 = test: MIC determination, broth microdilution (CLSI); conditions: Acinetobacter baumannii, ATCC15308, strain 9
E. cloacae 34654 = test: MIC determination, broth microdilution (CLSI); conditions: Enterobacter cloacae, 34654, strain 3
C. perfringens DSM756 = test: microbe, parasite or virus in culture; conditions: Clostridium perfringens, DSM756, read-out: MIC strain 16 (C. perfringens DSM756), strain 16; broth microdilution
[2] = Staphylococcus aureus, 133, strain 11, read-out: strain 11 MIC
[3] = Staphylococcus aureus, 133, strain 14, broth microdilution, read-out: MIC strain 14 (S. aureus 133)

Row | SMILES | MIC (S. pneumoniae 113) | MIC (E. coli J62) | MIC strain 19 (E. coli J62-TEM-3 + 4 μg/mL clavulanic acid) (Bacteria) | MIC strain 20 (E. coli J62-TEM-3 + 4 μg/mL sulbactam) (Bacteria) | MIC strain 21 (E. coli J62-TEM-3 + 4 μg/mL tazobactam) (Bacteria) | MIC (K. pneumoniae 60) | MIC (E. coli J62-TEM-3) | MIC (E. coli ATCC25922) | MIC [1] | MIC (H. influenzae ATCC 49247) | MIC (S. aureus 133; [2]) | MIC (P. aeruginosa PAO1) | MIC (B. fragilis 6688) | MIC (M. morganii 126/3048) | MIC (C. freundii K21/3034) | MIC (A. baumannii ATCC15308) | MIC (E. cloacae 34654) | MIC (C. perfringens DSM756) | MIC (S. aureus 133; [3])
1 | N=C(N)c1ccc(OCCO/N=C(\C(=O)N[C@@H]2C(=O)N(S(=O)(=O)O)[C@@H]2C(N)=O)c2csc(N)n2)cc1 [Example 66, (2S,3S)-3-{[(2Z)-2-(2-Amino-1,3-thiazol-4-yl)-2-{[2-(4-carbamimidoylphenoxy)-ethoxy]imino}acetyl]amino}-2-carbamoyl-4-oxoazetidine-1-sulfonic acid] | 1 µg/mL (≈ 1.85 µM) | 2 µg/mL (≈ 3.7 µM) | 2 µg/mL | 2 µg/mL | 2 µg/mL | 1 µg/mL (≈ 1.85 µM) | 4 µg/mL (≈ 7.4 µM) | 2 µg/mL (≈ 3.7 µM) | 32 µg/mL (≈ 59.2 µM) | 2 µg/mL (≈ 3.7 µM) | 1 µg/mL (≈ 1.85 µM) | 32 µg/mL (≈ 59.2 µM) | 16 µg/mL (≈ 29.6 µM) | 2 µg/mL (≈ 3.7 µM) | 2 µg/mL (≈ 3.7 µM) | 4 µg/mL (≈ 7.4 µM) | 4 µg/mL (≈ 7.4 µM) | 16 µg/mL (≈ 29.6 µM) | 
2 | CC1(C)[C@H](NC(=O)/C(=N\O[C@H](COc2ccc(C(=N)NC(CN)CN)cc2)C(=O)O)c2csc(N)n2)C(=O)N1OS(=O)(=O)O [Example 103, (2R)-2-({[(1Z)-1-(2-Amino-1,3-thiazol-4-yl)-2-{[(3S)-2,2-dimethyl-4-oxo-1-(sulfooxy)-azetidin-3-yl]amino}-2-oxoethylidene]amino}oxy)-3-{4-[N-(1,3-diaminopropan-2-yl)carbamimidoyl]phenoxy}propanoic acid] | 4 µg/mL (≈ 6.08 µM) |  |  |  |  |  |  | 2 µg/mL (≈ 3.04 µM) |  | 0.25 µg/mL (≈ 0.38 µM) | ≤ 0.063 µg/mL | 16 µg/mL (≈ 24.3 µM) |  | 2 µg/mL (≈ 3.04 µM) |  | 32 µg/mL (≈ 48.7 µM) |  | 32 µg/mL (≈ 48.7 µM) | 
3 | C[C@H]1[C@H](NC(=O)/C(=N\OCCOc2ccc(C(=N)N)cc2)c2csc(N)n2)C(=O)N1OS(=O)(=O)O [Example 47, (2Z)-2-(2-Amino-1,3-thiazol-4-yl)-2-{[2-(4-carbamimidoylphenoxy)ethoxy]imino}-N-[(2S,3S)-2-methyl-4-oxo-1-(sulfooxy)azetidin-3-yl]ethanamide] | 0.125 µg/mL (≈ 0.237 µM) | 0.5 µg/mL (≈ 0.948 µM) | 0.5 µg/mL | 0.5 µg/mL | 0.5 µg/mL | 0.5 µg/mL (≈ 0.948 µM) | 32 µg/mL (≈ 60.7 µM) | 0.25 µg/mL (≈ 0.474 µM) | 2 µg/mL (≈ 3.79 µM) | 0.125 µg/mL (≈ 0.237 µM) | ≤ 0.063 µg/mL | 4 µg/mL (≈ 7.58 µM) | 16 µg/mL (≈ 30.3 µM) | 2 µg/mL (≈ 3.79 µM) | 0.5 µg/mL (≈ 0.948 µM) | 2 µg/mL (≈ 3.79 µM) | 1 µg/mL (≈ 1.9 µM) | 1 µg/mL (≈ 1.9 µM) | 1 µg/mL (≈ 1.9 µM)
4 | C[C@H]1[C@H](NC(=O)/C(=N\OCCOc2ccc(C(=N)NCCO)cc2)c2csc(N)n2)C(=O)N1S(=O)(=O)O [Example 69, (2S,3S)-3-({(2Z)-2-(2-Amino-1,3-thiazol-4-yl)-2-[(2-{4-[N-(2-hydroxyethyl)carbamimidoyl]-phenoxy}ethoxy)imino]acetyl}amino)-2-methyl-4-oxoazetidine-1-sulfonic acid] | ≤ 0.063 µg/mL | 0.25 µg/mL (≈ 0.45 µM) | 0.25 µg/mL | 0.25 µg/mL | 0.25 µg/mL | 0.25 µg/mL (≈ 0.45 µM) | 16 µg/mL (≈ 28.8 µM) | 0.125 µg/mL (≈ 0.225 µM) | 8 µg/mL (≈ 14.4 µM) | ≤ 0.063 µg/mL | ≤ 0.063 µg/mL | 4 µg/mL (≈ 7.2 µM) | 1 µg/mL (≈ 1.8 µM) | 0.125 µg/mL (≈ 0.225 µM) | 0.125 µg/mL (≈ 0.225 µM) | 2 µg/mL (≈ 3.6 µM) | 0.25 µg/mL (≈ 0.45 µM) | 1 µg/mL (≈ 1.8 µM) | 4 µg/mL (≈ 7.2 µM)
